This is an account of results in PubChem BioAssay (NCI).

The structures appear in SMILES notation.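 Where inhibition never reached the appropriate level, the endpoint shown equals the highest concentration tested. Otherwise, values were interpolated linearly from a five-concentration, 48-hour dose response in 96-well plates. The concentration for 50% growth inhibition is given as GI50. TGI: concentration producing complete growth inhibition.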

Some test systems named below: SR leukemia; HT29 colon; M14 melanoma; OVCAR-5 ovarian; OVCAR-8 ovarian; HCT-15 colon; NCI-H522 lung; SK-MEL-28 melanoma; NCI/ADR-RES ovarian; NCI-H226 lung.
Common to all, as to test: NCI anticancer screen, dose series, 48 h

Consider `COc1ccc(C2=C(c3cc(OC)c(OC)c(OC)c3)C(=O)CC2)cc1`, for which the GI50 in the assay on SR leukemia was 0.0335 µM; with HT29 colon, 0.0845 µM; with M14 melanoma, 0.107 µM; in the assay with OVCAR-5 ovarian, 0.662 µM; with OVCAR-8 ovarian, 0.392 µM; in the assay with HCT-15 colon it was 0.147 µM. Also, the GI50 in the assay with NCI-H522 lung was 0.0671 µM; with SK-MEL-28 melanoma it was 0.489 µM; in the assay on NCI/ADR-RES ovarian, 0.0704 µM; in the assay with NCI-H226 lung it was 0.425 µM. Further, the TGI was over 100 µM in the assay on SR leukemia; 15.3 µM with HT29 colon; 4.01 µM in the assay on M14 melanoma; over 100 µM in the assay on OVCAR-5 ovarian; over 100 µM in the assay with OVCAR-8 ovarian; over 100 µM with HCT-15 colon. In addition, the TGI in the assay with NCI-H522 lung was 2.84 µM; with SK-MEL-28 melanoma it was over 100 µM; with NCI/ADR-RES ovarian, over 100 µM; in the assay with NCI-H226 lung it was over 22.6 µM.

In the case of `Cc1ccccc1N=Nc1c(O)[nH]c2ccccc12`, the TGI with SR leukemia, in the assay on HT29 colon, in the assay on M14 melanoma, with OVCAR-5 ovarian, in the assay on OVCAR-8 ovarian and in the assay with HCT-15 colon was over 100 µM each time. For the same molecule, the TGI in the assay with NCI-H522 lung, with SK-MEL-28 melanoma, in the assay on NCI/ADR-RES ovarian and in the assay on NCI-H226 lung was over 100 µM throughout.

Consider `CCCN(CCC)CCCNC(=O)c1cc2c(-c3ccc(OC)c(OC)c3)nn(C)c2s1`, for which the GI50 in the assay on SR leukemia is 11.9 µM; with HT29 colon, 14.5 µM; in the assay with M14 melanoma, 17.2 µM; in the assay with OVCAR-5 ovarian, 50.4 µM; in the assay on OVCAR-8 ovarian it was 36.9 µM; in the assay with HCT-15 colon it was 25 µM. For the same molecule, the GI50 in the assay with NCI-H522 lung is 16.6 µM; with SK-MEL-28 melanoma, 16.6 µM; in the assay with NCI/ADR-RES ovarian, 33.4 µM; with NCI-H226 lung, over 100 µM. The TGI with SR leukemia was 58.9 µM; with HT29 colon, 45.3 µM; with M14 melanoma it was 35 µM; with OVCAR-5 ovarian, over 100 µM; in the assay with OVCAR-8 ovarian it was over 100 µM; with HCT-15 colon, over 100 µM. The TGI was 41.3 µM with NCI-H522 lung, 32.1 µM in the assay on SK-MEL-28 melanoma, over 100 µM in the assay on NCI/ADR-RES ovarian and over 100 µM in the assay with NCI-H226 lung.

As for `C[C@H]1CC[C@@H]2[C@@H](C)[C@H]3[C@H](C[C@H]4[C@@H]5CC=C6C[C@@H](O)CC[C@]6(C)[C@H]5C[C@H](O)[C@]34C)N2C1`, the TGI in the assay with SR leukemia, in the assay on HT29 colon, with M14 melanoma, with OVCAR-5 ovarian, in the assay with OVCAR-8 ovarian and with HCT-15 colon was over 100 µM throughout. Also, the TGI with NCI-H522 lung, in the assay with SK-MEL-28 melanoma, with NCI/ADR-RES ovarian and with NCI-H226 lung was over 100 µM each time.

Consider `N#Cc1cccc(NC(=O)c2oc3ccccc3c2-c2cnn(-c3ccccc3)c2)c1`, for which the GI50 was 148 µM with SR leukemia; over 500 µM with HT29 colon; over 500 µM in the assay with M14 melanoma; over 500 µM with OVCAR-5 ovarian; over 500 µM in the assay on OVCAR-8 ovarian; over 500 µM in the assay on HCT-15 colon. For the same molecule, the GI50 in the assay with NCI-H522 lung, in the assay with SK-MEL-28 melanoma, in the assay on NCI/ADR-RES ovarian and in the assay on NCI-H226 lung was over 500 µM each time. Besides, the TGI in the assay with SR leukemia, in the assay on HT29 colon, in the assay with M14 melanoma, with OVCAR-5 ovarian, in the assay on OVCAR-8 ovarian and in the assay on HCT-15 colon was over 500 µM each time. For the same molecule, the TGI with NCI-H522 lung, in the assay on SK-MEL-28 melanoma, with NCI/ADR-RES ovarian and with NCI-H226 lung was over 500 µM throughout.

For the molecule `C#COc1cccc(Nc2ncnc3ncc(NC(=O)CCl)cc23)c1`, the TGI in the assay on SR leukemia, in the assay on HT29 colon, in the assay with M14 melanoma, with OVCAR-5 ovarian, in the assay with OVCAR-8 ovarian and in the assay with HCT-15 colon was over 62.5 µM throughout. The TGI in the assay on NCI-H522 lung was over 29.9 µM; in the assay with SK-MEL-28 melanoma, over 62.5 µM; in the assay with NCI/ADR-RES ovarian it was over 62.5 µM; in the assay with NCI-H226 lung, over 62.5 µM. Besides, the GI50 was 50.5 µM with M14 melanoma; over 47.4 µM in the assay on OVCAR-5 ovarian; over 14.5 µM in the assay with OVCAR-8 ovarian; over 14 µM with HCT-15 colon; over 17.9 µM in the assay on NCI-H522 lung; over 59.6 µM in the assay on SK-MEL-28 melanoma. For the same molecule, the GI50 in the assay with NCI/ADR-RES ovarian is over 24.7 µM; in the assay on NCI-H226 lung, over 62.5 µM.

As for `Clc1ccc(-c2nn3ncccc3c2-c2ccnc(Nc3ccccc3)n2)cc1`, the GI50 in the assay on SR leukemia was 7.66 µM; in the assay with HT29 colon, 6.51 µM; with M14 melanoma, over 14.8 µM; with OVCAR-5 ovarian it was 11.9 µM; in the assay on OVCAR-8 ovarian, 11.8 µM; in the assay with HCT-15 colon, 7.94 µM. In addition, the GI50 with NCI-H522 lung was 5.99 µM; in the assay on SK-MEL-28 melanoma, over 22.2 µM; with NCI/ADR-RES ovarian, 8.01 µM; in the assay with NCI-H226 lung, over 13.1 µM. For the same molecule, the TGI with SR leukemia, with HT29 colon, with M14 melanoma, with OVCAR-5 ovarian, in the assay on OVCAR-8 ovarian and with HCT-15 colon was over 25 µM throughout. Further, the TGI in the assay on NCI-H522 lung, in the assay with SK-MEL-28 melanoma, in the assay on NCI/ADR-RES ovarian and in the assay with NCI-H226 lung was over 25 µM throughout.

`COc1cccc(C2C3=C(COC3=O)N(CCO)c3cc4c(cc32)OCCO4)c1` (configuration not stated): the GI50 was 0.0271 µM in the assay on SR leukemia; 0.124 µM in the assay with HT29 colon; 0.052 µM in the assay on M14 melanoma; 0.427 µM in the assay on OVCAR-5 ovarian; 0.22 µM in the assay with OVCAR-8 ovarian; 0.21 µM in the assay on HCT-15 colon. In addition, the GI50 with NCI-H522 lung was 0.00807 µM; in the assay with SK-MEL-28 melanoma it was over 50 µM; in the assay with NCI/ADR-RES ovarian, 0.137 µM; with NCI-H226 lung, 7.26 µM. For the same molecule, the TGI in the assay with HT29 colon was 1.34 µM; in the assay on M14 melanoma, 0.19 µM; in the assay with OVCAR-5 ovarian, over 50 µM; with OVCAR-8 ovarian it was over 50 µM; with HCT-15 colon, over 50 µM; in the assay with NCI-H522 lung it was 0.0208 µM. Besides, the TGI was over 50 µM in the assay with SK-MEL-28 melanoma, 0.727 µM in the assay with NCI/ADR-RES ovarian and over 50 µM with NCI-H226 lung.
